Measurements taken from patent US20240398812A1 (Caraway Therapeutics, Inc., priority 2021, published 2024).
pEC50: −log10 of the molar value.

What was measured:
[1] = target: T1, TRPML3 (Homo sapiens, UniProt Q8TDD5); test: Fluorescent TRPML3 assay (as for TRPML1); assay type: cell-based
T1 construct: expressed in transfected cells
T1 sequence (Q8TDD5 1-553): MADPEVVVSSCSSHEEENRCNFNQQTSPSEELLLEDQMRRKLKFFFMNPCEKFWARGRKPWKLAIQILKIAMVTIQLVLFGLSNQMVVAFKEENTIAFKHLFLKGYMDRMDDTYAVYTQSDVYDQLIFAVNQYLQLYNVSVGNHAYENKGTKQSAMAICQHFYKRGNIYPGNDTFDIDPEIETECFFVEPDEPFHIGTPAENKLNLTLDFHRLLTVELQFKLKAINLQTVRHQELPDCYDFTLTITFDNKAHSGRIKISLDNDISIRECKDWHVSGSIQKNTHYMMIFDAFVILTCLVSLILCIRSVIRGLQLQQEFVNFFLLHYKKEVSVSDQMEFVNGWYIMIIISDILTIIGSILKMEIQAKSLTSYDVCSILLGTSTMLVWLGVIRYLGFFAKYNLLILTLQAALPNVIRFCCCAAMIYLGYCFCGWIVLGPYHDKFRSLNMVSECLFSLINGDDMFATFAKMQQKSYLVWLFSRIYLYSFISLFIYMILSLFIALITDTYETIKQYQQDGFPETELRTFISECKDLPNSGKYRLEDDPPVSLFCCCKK
Method: (§1) HEK-293 Trex cells were stably transfected with a construct consisting of the human coding sequence for TRPML1 cloned into the tet-inducible plasmid pCDNA5 T/O. Mutations were introduced into the TRPML1 sequence to facilitate expression on the cell surface (Silvia Vergarajauregui, Rosa Puertollano Traffic. 2006 March; 7 (3): 337-353). Briefly, the cells are cultured in 150 mm round tissue culture dishes containing 20 mL of media. The day before the assay the cells are rinsed with DPBS —Ca—Mg and then treated briefly with Trypsin-EDTA. The Trypsin-EDTA is diluted with growth media, and cells are counted. 38×10^6 cells are re-plated into 150 mm round tissue culture dishes in media containing 0.5 ug/mL doxycycline to induce expression of hTRPML1.
(§2) The day of the experiment cells are lifted from the plates as above and collected by centrifugation. The cells are then suspended in dye loading buffer consisting of Ringer's solution supplemented with 0.1% Pluronic Acid and 1 micromolar Fluo4-AM dye. Cells are loaded for ˜60 minutes in the dark with occasional mixing. The cells are collected by centrifugation, the loading media aspirated, and the cells resuspended in 25 mL Ringer's solution and incubated ˜60 minutes in the dark. The cells are again collected by centrifugation, rinsed in Ringer's Solution and resuspended to 0.2×10^6 cells/mL in modified Ringer's solution containing 10 mM calcium.
(§3) Compounds are dissolved to a concentration of 10 millimolar with DMSO. Compound plates are created by dispensing compounds into 384 well black wall clear bottom plates (Greiner 781091). Positive and negative controls are included on each plate. Typically, different amounts of each compound are tested ranging from 100 nanoMoles (20 micromolar final concentration) decreasing in half-log steps to 31 picoMoles (6 nanomolar final concentration). Each concentration is typically tested in triplicate.
(§4) 50 microliters of dye-loaded cells are dispensed into each well of the compound assay plate created above. The fluorescence in each well is then determined with an excitation wavelength of 480 nm and an emission wavelength of 540 nm using either a Molecular Devices SpectraMax multimode plate reader or a Hamamatsu FDSS/uCell plate imager.
(§5) The resulting fluorescence for each well is exported as an ascii file and loaded into our LIMS for analysis. The percent activity of each compound at each concentration is determined by comparison to the positive and negative control wells included in each plate.
Assays for TRPML2 and TRPML3 were performed as above for TRPML1, by substituting the appropriate TRPML2 or TRPML3 subtype for the TRPML1.
(§6) EC50 values were calculated using a non-linear regression of Prism. In the table, “A” indicates an EC50 of less than 100 nM, “B” indicates an EC50 range from 100 nM to 500 nM; “C” indicates an EC50 range from 500 nM to 2 μM; and “D” indicates an EC50 greater than 2 μM.

[2] = target: human TRPML1 (Homo sapiens, UniProt Q9GZU1); test: Fluorescent TRPML1 assay (Fluo4-AM calcium fluorescence, HEK-293 Trex cells); assay type: cell-based
human TRPML1, sequence (Q9GZU1 whole entry L15A/L16A/L577A/L578A, form open): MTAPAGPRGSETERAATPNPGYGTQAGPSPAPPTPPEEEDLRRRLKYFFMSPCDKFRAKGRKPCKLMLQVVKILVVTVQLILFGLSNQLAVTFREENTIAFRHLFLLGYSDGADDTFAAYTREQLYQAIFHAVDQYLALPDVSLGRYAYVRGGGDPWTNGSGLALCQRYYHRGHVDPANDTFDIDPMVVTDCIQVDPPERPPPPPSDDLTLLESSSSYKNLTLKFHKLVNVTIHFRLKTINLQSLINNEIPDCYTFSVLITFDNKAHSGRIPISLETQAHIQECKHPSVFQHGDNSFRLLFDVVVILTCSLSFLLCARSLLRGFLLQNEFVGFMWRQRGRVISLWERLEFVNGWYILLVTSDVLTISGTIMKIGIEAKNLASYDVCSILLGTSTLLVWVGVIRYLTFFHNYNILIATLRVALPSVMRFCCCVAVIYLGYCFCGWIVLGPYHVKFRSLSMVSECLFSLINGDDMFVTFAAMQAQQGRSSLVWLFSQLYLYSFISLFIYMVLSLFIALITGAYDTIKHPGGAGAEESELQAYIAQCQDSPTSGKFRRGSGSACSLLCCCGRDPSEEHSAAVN
Method: as §1, §2, §3, §4, §5, §6

SMILES	pEC50 ([1]; Table 3, compounds 101-177)	pEC50 ([2]; Table 3, compounds 101-177)	pEC50 ([1]; Table 3, compounds 201-283)	pEC50 ([2]; Table 3, compounds 201-283)
CC(C)C(=O)N1CCN(c2ncnc3c2c(-c2ccccn2)cn3-c2cc(C#N)ccn2)[C@@H](C)C1 [Compound 116, (S)-2-(4-(4-isobutyryl-2-methylpiperazin-1-yl)-5-(pyridin-2-yl)-7H-pyrrolo[2,3-d]pyrimidin-7-yl)isonicotinonitrile]	5.70 to 6.30	5.70 to 6.30		
CC(C)C(=O)N1CCN(c2ncnc3c(-c4cc(C#N)ccn4)cn(-c4ccccn4)c23)[C@@H](C)C1 [Compound 211, (S)-2-(4-(4-isobutyryl-2-methylpiperazin-1-yl)-5-(pyridin-2-yl)-5H-pyrrolo[3,2-d]pyrimidin-7-yl)isonicotinonitrile]			< 5.70	< 5.70
CCCN(CC)c1cn(-c2cc(C#N)ccn2)c2ncnc(N3CCN(C(=O)C(C)C)C[C@@H]3C)c12 [Compound 163, (S)-2-(5-(ethyl(propyl)amino)-4-(4-isobutyryl-2-methylpiperazin-1-yl)-7H-pyrrolo[2,3-d]pyrimidin-7-yl)isonicotinonitrile]	6.30 to 7.00	> 7.00		
COC(C)(C)C(=O)N1CCN(c2ncnc3c2c(C(F)(F)F)cn3-c2cc(C#N)ccn2)[C@@H](C)C1 [Compound 210, (S)-2-(4-(4-(2-methoxy-2-methylpropanoyl)-2-methylpiperazin-1-yl)-5-(trifluoromethyl)-7H-pyrrolo[2,3-d]pyrimidin-7-yl)isonicotinonitrile]			5.70 to 6.30	6.30 to 7.00
CC(C)C(=O)N1CCN(c2ncnc3c2c(-c2ccccc2F)cn3-c2ncc(C#N)s2)[C@@H](C)C1 [Compound 142, (S)-2-(5-(2-fluorophenyl)-4-(4-isobutyryl-2-methylpiperazin-1-yl)-7H-pyrrolo[2,3-d]pyrimidin-7-yl) thiazole-5-carbonitrile]	6.30 to 7.00	6.30 to 7.00		
CCCC(=O)N1CCN(c2ncnc3c2c(N2CCC2)cn3-c2cc(C#N)ccn2)C[C@H]1C [Compound 274, (R)-2-(5-(azetidin-1-yl)-4-(4-butyryl-3-methylpiperazin-1-yl)-7H-pyrrolo[2,3-d]pyrimidin-7-yl)isonicotinonitrile]			> 7.00	> 7.00
CCCN(CC)c1cn(-c2cc(C#N)ccn2)c2ncnc(N3CCN(C(=O)C(C)(C)C)C[C@@H]3C)c12 [Compound 164]	> 7.00	> 7.00		
CC(C)C(=O)N1CCN(c2ncnc3c2c(-c2ccccc2F)cn3-c2cc(C#N)ccn2)CC1 [Compound 106, 2-(5-(2-fluorophenyl)-4-(4-isobutyrylpiperazin-1-yl)-7H-pyrrolo[2,3-d]pyrimidin-7-yl)isonicotinonitrile]	> 7.00	6.30 to 7.00		
CCN(CC)c1cn(-c2cc(C#N)ccn2)c2ncnc(N3CCN(C(=O)C(C)C)C[C@@H]3C)c12 [Compound 151, (S)-2-(5-(diethylamino)-4-(4-isobutyryl-2-methylpiperazin-1-yl)-7H-pyrrolo[2,3-d]pyrimidin-7-yl)isonicotinonitrile]	6.30 to 7.00	6.30 to 7.00		

Now from value to molecule:

pEC50 ([1]; Table 3, compounds 101-177)	pEC50 ([2]; Table 3, compounds 101-177)	pEC50 ([1]; Table 3, compounds 201-283)	pEC50 ([2]; Table 3, compounds 201-283)	SMILES
< 5.70	> 7.00			CC(C)CC(=O)N1CCN(c2ncnc3c2c(C2CC2)cn3-c2cc(C#N)ccn2)[C@@H](C)C1 [Compound 137, (S)-2-(5-cyclopropyl-4-(2-methyl-4-(3-methylbutanoyl)piperazin-1-yl)-7H-pyrrolo[2,3-d]pyrimidin-7-yl)isonicotinonitrile]
> 7.00	> 7.00			C[C@H]1CN(C(=O)C2CC2)CCN1c1ncnc2c1c(-c1ccccc1F)cn2-c1cc(C#N)ccn1 [Compound 105, (S)-2-(4-(4-(cyclopropanecarbonyl)-2-methylpiperazin-1-yl)-5-(2-fluorophenyl)-7H-pyrrolo[2,3-d]pyrimidin-7-yl)isonicotinonitrile]
		> 7.00	> 7.00	C[C@H]1CN(C(=O)C(C)(C)C)CCN1c1nccc2c1c(N1CCC1)cn2-c1cccc(F)c1 [Compound 227, (S)-1-(4-(3-(azetidin-1-yl)-1-(3-fluorophenyl)-1H-pyrrolo[3,2-c]pyridin-4-yl)-3-methylpiperazin-1-yl)-2,2-dimethylpropan-1-one]
		> 7.00	> 7.00	C[C@@H]1CN(c2ncnc3c2c(N2CCC2)cn3-c2cccc(F)c2)[C@@H](C)CN1C(=O)C(C)(C)C [Compound 219, 1-((2R,5S)-4-(5-(azetidin-1-yl)-7-(3-fluorophenyl)-7H-pyrrolo[2,3-d]pyrimidin-4-yl)2,5-dimethylpiperazin-1-yl)-2,2-dimethylpropan-1-one]
> 7.00	> 7.00			C[C@H]1CN(C(=O)C(C)(C)F)CCN1c1ncnc2c1c(C1CC1)cn2-c1cc(C#N)ccn1 [Compound 114, (S)-2-(5-cyclopropyl-4-(4-(2-fluoro-2-methylpropanoyl)-2-methylpiperazin-1-yl)-7H-pyrrolo[2,3-d]pyrimidin-7-yl)isonicotinonitrile]
		5.70 to 6.30	> 7.00	CC(C)C(=O)N1C[C@H](C)N(c2ncnc3c2c(N2CCC2)cn3-c2cccc(Cl)c2)C[C@H]1C [Compound 221, 1-((2R,5S)-4-(5-(azetidin-1-yl)-7-(3-chlorophenyl)-7H-pyrrolo[2,3-d]pyrimidin-4-yl)-2,5-dimethylpiperazin-1-yl)-2-methylpropan-1-one]
6.30 to 7.00	> 7.00			C[C@@H]1CN(c2ncnc3c2c(C2CC2)cn3-c2cc(C#N)ccn2)CCN1C(=O)C1(F)CC1 [Compound 129, (R)-2-(5-cyclopropyl-4-(4-(1-fluorocyclopropane-1-carbonyl)-3-methylpiperazin-1-yl)-7H-pyrrolo[2,3-d]pyrimidin-7-yl)isonicotinonitrile]
< 5.70	5.70 to 6.30			Cc1nccnc1-c1cn(-c2cc(C#N)ccn2)c2ncnc(N3C[C@@H](C)N(C(=O)C(C)C)C[C@@H]3C)c12 [Compound 172, 2-(4-((2S,5R)-4-isobutyryl-2,5-dimethylpiperazin-1-yl)-5-(3-methylpyrazin-2-yl)-7H-pyrrolo[2,3-d]pyrimidin-7-yl)isonicotinonitrile]
		5.70 to 6.30	5.70 to 6.30	C[C@@H]1CN(c2ncnc3c2c(C2CCC2)cn3-c2cccc(Cl)c2)[C@@H](C)CN1C(=O)C1(F)CC1 [Compound 254, ((2R,5S)-4-(7-(3-chlorophenyl)-5-cyclobutyl-7H-pyrrolo[2,3-d]pyrimidin-4-yl)-2,5-dimethylpiperazin-1-yl)(1-fluorocyclopropyl)methanone]
> 7.00	> 7.00			C[C@H]1CN(C(=O)C2(C)CC2)CCN1c1ncnc2c1c(-c1ccccc1F)cn2-c1cc(C#N)ccn1 [Compound 112, (S)-2-(5-(2-fluorophenyl)-4-(2-methyl-4-(1-methylcyclopropane-1-carbonyl)piperazin-1-yl)-7H-pyrrolo[2,3-d]pyrimidin-7-yl)isonicotinonitrile]
5.70 to 6.30	5.70 to 6.30			CC(C)C(=O)N1CCN(c2ncnc3c2c(C2CCC2)cn3-c2cc(C#N)ccn2)[C@@H](C)C1 [Compound 150, (S)-2-(5-cyclobutyl-4-(4-isobutyryl-2-methylpiperazin-1-yl)-7H-pyrrolo[2,3-d]pyrimidin-7-yl)isonicotinonitrile]
		6.30 to 7.00	> 7.00	Cc1cn(-c2cc(C(F)(F)F)ccn2)c2ncnc(N3C[C@@H](C)N(C(=O)C(C)(C)C)C[C@@H]3C)c12 [Compound 245, 1-((2R,5S)-2,5-dimethyl-4-(5-methyl-7-(4-(trifluoromethyl)pyridin-2-yl)-7H-pyrrolo[2,3-d]pyrimidin-4-yl)piperazin-1-yl)-2,2-dimethylpropan-1-one]
